Where a SMILES comes first, the peptide text is derived from it. The star is where a group is joined. Succinyl(4-O-cholesteryl) = CC(C)CCC[C@@H](C)[C@H]1CC[C@H]2[C@@H]3CC=C4C[C@@H](OC(=O)CCC(=O)*)CC[C@]4(C)[C@H]3CC[C@]12C
Legend:
hMPV-N46 (127-172) = target: T1, hMPV-N46 (127-172) (Human metapneumovirus, UniProt Q6WB98); test: SPR affinity to hMPV-N46 coupled on CM5 chip; type: binding
T1 construct: hMPV-N46 (127-172)
Description: (§1) hMPV and hPIV were two viruses having a typical Class I fusion protein-F protein. An F protein precursor F0 was cracked into F1 and F2 subunits. […] When the compound flowed through a chip surface, changes in an SPR signal were monitored in real time, binding and dissociation processes were recorded, and a binding rate constant (ka) and a dissociation rate constant (kd) were further obtained through kinetic analysis, thereby calculating an equilibrium dissociation constant (KD=kd/ka).
(§2) A CM5 chip with a catalog number 29149603, an amino coupling reagent kit with a catalog number BR100050, HBS-EP+Buffer (10×), sodium acetate (pH 4.0), and a 10 mM glycine-HCl buffer (pH 2.0) were all purchased from GE Health.
(§3) CM5 chip coupling: Channels 2 and 4 of the CM5 chip were activated for 7 min by using a freshly-prepared mixture of 50 mM Hydroxy succinimide (NHS) and 200 mM 1-(3-Dimethylaminopropyl)-3-ethylcarbodiimide (EDC) according to 1:1; and then, hMPV-N46 or hPIV-N51 was diluted and dissolved with sodium acetate with 4.0 pH to a concentration of 30 μM, with a flow rate of 10 μl/min and time of 600 s. An experimental buffer was HBS-EP+buffer (1×). Finally, the chip was blocked with 1 M ethanolamine. The instrument was set to a temperature of 25° C.
(§4) Affinity detection: the buffer used in the experiment was HBS-EP+buffer (1×), and a multi-cycle dynamic mode was used. Channels 1 and 3 of the chip served as blank reference channels; polypeptides to be detected sequentially flowed through Channels 2 and 4 at concentrations of 0 μM, 0.04 µM, 0.12 µM, 0.37 μM, 1.11 µM, 3.33 µM, 10 µM, and 30 μM; the flow rate was 30 μl/min, binding was performed for 180 s, and dissociation was performed for 120 s. Finally, the chip was regenerated by injecting 10 mM glycine (pH 2.0). The instrument was set to a temperature of 25° C.

hPIV-N51 (139-189) = target: T2, hPIV-N51 (139-189) (Human parainfluenza 3 virus, UniProt P06828); test: SPR affinity to hPIV-N51 coupled on CM5 chip; type: binding
T2 construct: hPIV-N51 (139-189)
T2 sequence (P06828 139-189): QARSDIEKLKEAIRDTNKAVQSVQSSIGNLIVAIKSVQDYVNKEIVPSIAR
Description: as §1, §2, §3, §4

hMPV A2 = type: cell-based; settings: Vero cells, plaque reduction
Description: (§5) African green monkey kidney cells (Vero) were sourced from the ATCC, with catalog number CCL-81. The cells were cultured in a DMEM culture solution in which 10% fetal bovine serum, 1% non-essential amino acids, 1% sodium pyruvate, 1% L-glutamine, 100 U/ml penicillin, and 100 μg/ml streptomycin were added.
(§6) A hMPV plaque experiment culture medium consisted of an Opti-MEM culture solution added with 1% non-essential amino acids, 100 U/mL penicillin, and 100 μg/mL streptomycin.
(§7) hMPV virus strains A2 and B1 were constructed by WuXi App Tec.
(§8) This study used a plaque reduction experiment to detect the in-vitro activity of a test sample against the hMPV virus strains A2 and B1.
(§9) The test sample and an experimental system were tested at 8 concentrations in duplicated wells. The Vero cells were digested with trypsin and then diluted to a concentration of 400,000 cells per milliliter by using a cell culture solution containing 2% serum. The diluted cells were added to a 96-well cell test board, with 100 μL per well, corresponding to 40000 cells per well. The cells were cultured overnight in a 37° C. incubator with 5% CO2.
(§10) On the second day, the test sample was diluted in an experimental culture medium at a fold ratio. The sample diluted at a fold ratio and an equal volume of virus (approximately 200 PFU per well) were well mixed and incubated at 33° C. in 5% CO2 for 1 h. Then, the culture solution in the 96-well cell test board was discarded, the sample virus mixed solution (100 μL) was added to the 96-well cell culture plate, and incubated at 37° C. in 5% CO2 for 2 hours. After 2 h, the sample virus mixed solution was discarded, 200 μL of an experiment culture medium containing the test sample with a corresponding concentration was added, and the culture solution contained 0.8% CMC and 5 μg/ml trypsin. A final concentration of DMSO in the culture solution was 0.5%. A system control antibody was directly added to the experiment culture solution containing 0.8% CMC and 5 μg/ml trypsin. A cell control (cells, without compound treatment or viral infection) and a viral control (cell infection virus, without compound treatment) were set. The cells were cultured for 1 day in the 33° C. incubator with 5% CO2.
(§11) The cells were fixed with 4% paraformaldehyde, and then permeabilization was performed with 0.5% Triton X-100. After the plate was washed with DPBS, a hMPV specific antibody (1:2000 dilution) was added and incubated at 37° C. for 1.5 h. Then, a secondary antibody (1:1000 dilution) was added and incubated at 37° C. for 1 hour. The secondary antibody was discarded, a TrueBlue solution was added, dyeing was performed for approximately 10 minutes; and the plate was washed with running water and then air-dried, and the number of spots in each well was counted by using a microplate imaging counter.
(§12) Raw data was used for analyzing the antiviral activity of the test samples. A calculation formula was shown as follows.
(§13) % inhibition rate=100−(sample value-cell control average value)/(virus control average value-cell control average value)×100
(§14) Non-linear fitting analysis was performed on the inhibition rate of the sample by using GraphPad Prism (version 10), so as to calculate an EC50 value for the sample. A fitting formula was log (inhibitor) vs. response-Variable slope (four parameters).

hMPV B1 = type: cell-based; settings: Vero cells, plaque reduction
Description: as §5, §6, §7, §8, §9, §10, §11, §12, §13, §14

T1 sequence (Q6WB98 127-172): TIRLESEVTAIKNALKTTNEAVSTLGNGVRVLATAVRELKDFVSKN

Molecule | Kd (hMPV-N46 (127-172)) | Kd (hPIV-N51 (139-189)) | EC50 (hMPV A2) | EC50 (hMPV B1)
CC[C@H](C)[C@H](NC(=O)[C@H](CCCCN)NC(=O)[C@H](CCCCN)NC(=O)[C@H](CC(C)C)NC(=O)[C@H](CO)NC(=O)[C@H](CCC(=O)O)NC(=O)[C@H](CCC(=O)O)NC(=O)[C@@H](NC(=O)[C@H](CCCCN)NC(=O)[C@H](CCCCN)NC(=O)[C@H](CC(N)=O)NC(=O)[C@@H](NC(=O)[C@H](CCC(=O)O)NC(=O)[C@H](CCC(=O)O)NC(=O)[C@@H](NC(=O)[C@H](CCCCN)NC(=O)[C@H](CCCCN)NC(=O)[C@H](CC(=O)O)NC(=O)[C@H](Cc1ccccc1)NC(=O)[C@H](CCC(=O)O)NC(=O)[C@H](CC(=O)O)NC(=O)[C@H](Cc1c[nH]c2ccccc12)NC(C)=O)[C@@H](C)CC)C(C)C)[C@@H](C)CC)C(=O)N[C@@H](CCC(=O)O)C(=O)N[C@@H](CCC(=O)O)C(=O)N[C@@H](CO)C(=O)N[C@@H](CC(=O)O)C(=O)N[C@@H](CCCCN)C(=O)N[C@@H](CCCCN)C(=O)N[C@@H](CC(C)C)C(=O)N[C@@H](CCC(=O)O)C(=O)N[C@@H](CCC(=O)O)C(=O)N[C@H](C(=O)N[C@@H](CC(N)=O)C(=O)N[C@@H](CCC(=O)O)C(=O)N[C@@H](C)C(=O)N[C@@H](C)C(=O)N[C@@H](C)C(=O)N[C@@H](CCCCN)C(=O)N[C@@H](CCCCNC(=O)CCC(=O)O[C@H]1CC[C@@]2(C)C(=CC[C@H]3[C@@H]4CC[C@H]([C@H](C)CCCC(C)C)[C@@]4(C)CC[C@@H]32)C1)C(N)=O)C(C)C [Compound 41] (Ac-WDEFDKKIEEVNKKIEESLKKIEESDKKLEEVNEAAAKK(Succinyl(4-O-cholesteryl))-NH2) | 4730 nM | 492 nM | 11.7 nM | 9.46 nM
Ac-WDEFDASISQVNEKINQSLEEIRKSDELLHNVNAGLGSGSGK(Succinyl(4-O-cholesteryl))-NH2 [Compound 27] | 2920 nM | 812 nM | 78.3 nM | 10.5 nM
CC[C@H](C)[C@H](NC(=O)[C@H](CCCCN)NC(=O)[C@H](CCCCN)NC(=O)[C@H](CC(C)C)NC(=O)[C@H](CO)NC(=O)[C@H](CCC(=O)O)NC(=O)[C@H](CCC(=O)O)NC(=O)[C@@H](NC(=O)[C@H](CCCCN)NC(=O)[C@H](CCCCN)NC(=O)[C@H](CC(N)=O)NC(=O)[C@@H](NC(=O)[C@H](CCC(=O)O)NC(=O)[C@H](CCC(=O)O)NC(=O)[C@@H](NC(=O)[C@H](CCCCN)NC(=O)[C@H](CCCCN)NC(=O)[C@H](CCCCN)NC(=O)[C@H](CC(=O)O)NC(=O)[C@H](Cc1ccccc1)NC(=O)[C@H](CCC(=O)O)NC(=O)[C@H](CC(=O)O)NC(C)=O)[C@@H](C)CC)C(C)C)[C@@H](C)CC)C(=O)N[C@@H](CCC(=O)O)C(=O)N[C@@H](CCC(=O)O)C(=O)N[C@@H](CO)C(=O)N[C@@H](CC(=O)O)C(=O)N[C@@H](CCCCN)C(=O)N[C@@H](CCCCN)C(=O)N[C@@H](CC(C)C)C(=O)N[C@@H](CCC(=O)O)C(=O)N[C@@H](CCC(=O)O)C(=O)N[C@H](C(=O)NCC(=O)N[C@@H](CO)C(=O)NCC(=O)N[C@@H](CO)C(=O)NCC(=O)N[C@@H](CCCCNC(=O)CCC(=O)O[C@H]1CC[C@@]2(C)C(=CC[C@H]3[C@@H]4CC[C@H]([C@H](C)CCCC(C)C)[C@@]4(C)CC[C@@H]32)C1)C(N)=O)C(C)C [Compound 15] (Ac-DEFDKKKIEEVNKKIEESLKKIEESDKKLEEVGSGSGK(Succinyl(4-O-cholesteryl))-NH2) | 38.1 nM | 1390 nM | 17.9 nM | 5.18 nM
CC[C@H](C)[C@H](NC(=O)[C@H](CO)NC(=O)[C@H](C)NC(=O)[C@H](CC(=O)O)NC(=O)[C@H](Cc1ccccc1)NC(=O)[C@H](CCC(=O)O)NC(=O)[C@H](CC(=O)O)NC(=O)[C@H](Cc1c[nH]c2ccccc12)NC(C)=O)C(=O)N[C@@H](CO)C(=O)N[C@@H](CCC(N)=O)C(=O)N[C@H](C(=O)N[C@@H](CC(N)=O)C(=O)N[C@@H](CCC(=O)O)C(=O)N[C@@H](CCCCN)C(=O)N[C@H](C(=O)N[C@@H](CC(N)=O)C(=O)N[C@@H](CCC(N)=O)C(=O)N[C@@H](CO)C(=O)N[C@@H](CC(C)C)C(=O)N[C@@H](CCC(=O)O)C(=O)N[C@@H](CCC(=O)O)C(=O)N[C@H](C(=O)N[C@@H](CCCNC(=N)N)C(=O)N[C@@H](CCCCN)C(=O)N[C@@H](CO)C(=O)N[C@@H](CC(=O)O)C(=O)N[C@@H](CCC(=O)O)C(=O)N[C@@H](CC(C)C)C(=O)N[C@@H](CC(C)C)C(=O)N[C@@H](Cc1c[nH]cn1)C(=O)N[C@@H](CC(N)=O)C(=O)N[C@@H](CCC(=O)O)C(=O)N[C@@H](C)C(=O)N[C@@H](C)C(=O)N[C@@H](C)C(=O)N[C@@H](CCCCN)C(=O)N[C@@H](CCCCNC(=O)CCC(=O)O[C@H]1CC[C@@]2(C)C(=CC[C@H]3[C@@H]4CC[C@H]([C@H](C)CCCC(C)C)[C@@]4(C)CC[C@@H]32)C1)C(N)=O)[C@@H](C)CC)[C@@H](C)CC)C(C)C [Compound 45] (Ac-WDEFDASISQVNEKINQSLEEIRKSDELLHNEAAAKK(Succinyl(4-O-cholesteryl))-NH2) | 70600 nM | 179000 nM | 200 nM | 13.1 nM
CC[C@H](C)[C@H](NC(=O)[C@H](CO)NC(=O)[C@H](C)NC(=O)[C@H](CC(=O)O)NC(=O)[C@H](Cc1ccccc1)NC(C)=O)C(=O)N[C@@H](CCC(=O)O)C(=O)N[C@@H](CCC(=O)O)C(=O)N[C@H](C(=O)N[C@@H](CC(N)=O)C(=O)N[C@@H](CCCNC(=N)N)C(=O)N[C@@H](CCCNC(=N)N)C(=O)N[C@H](C(=O)N[C@@H](CCC(=O)O)C(=O)N[C@@H](CCC(=O)O)C(=O)N[C@@H](CO)C(=O)N[C@@H](CC(C)C)C(=O)N[C@@H](CCCNC(=N)N)C(=O)N[C@@H](CCCNC(=N)N)C(=O)N[C@H](C(=O)N[C@@H](CCC(=O)O)C(=O)N[C@@H](CCC(=O)O)C(=O)N[C@@H](CO)C(=O)N[C@@H](CC(=O)O)C(=O)N[C@@H](CCCNC(=N)N)C(=O)N[C@@H](CCCNC(=N)N)C(=O)N[C@@H](CC(C)C)C(=O)N[C@@H](CCC(=O)O)C(=O)N[C@@H](CCC(=O)O)C(=O)N[C@H](C(=O)N[C@@H](CC(N)=O)C(=O)N[C@@H](C)C(=O)N[C@@H](CCC(=O)O)C(=O)N[C@@H](C)C(=O)N[C@@H](C)C(=O)N[C@@H](C)C(=O)N[C@@H](CCCCN)C(=O)N[C@@H](CCCCNC(=O)CCC(=O)O[C@H]1CC[C@@]2(C)C(=CC[C@H]3[C@@H]4CC[C@H]([C@H](C)CCCC(C)C)[C@@]4(C)CC[C@@H]32)C1)C(N)=O)C(C)C)[C@@H](C)CC)[C@@H](C)CC)C(C)C [Compound 42] (Ac-FDASIEEVNRRIEESLRRIEESDRRLEEVNAEAAAKK(Succinyl(4-O-cholesteryl))-NH2) | 533 nM | 485 nM | 26.1 nM | 10.1 nM

From patent US20260250325A1, “Antiviral Polypeptide Membrane Fusion Inhibitor, and Preparation Method and Application Thereof” (priority 2025, published 2026)
